The melting point is the temperature of the solid-liquid transition.

Structures are written as SMILES.

Regarding `FC(F)(F)c1ccc(-c2cc(C(F)(F)F)n3ncc(C#Cc4cccnc4)c3n2)cc1` [Example 3, 3-Pyridin-3-ylethynyl-7-trifluoromethyl-5-(4-trifluoromethyl-phenyl)-pyrazolo[1,5-a]pyrimidine], the melting point lay in the range of 187 to 188 °C. The same measure for `Nc1ccc(C#Cc2cnn3c(C(F)F)cc(-c4cccc(C(F)(F)F)c4)nc23)cn1` [Example 254, 5-[7-Difluoromethyl-5-(3-trifluoromethyl-phenyl)-pyrazolo[1,5-a]pyrimidin-3-ylethynyl]-pyridin-2-ylamine]: 164 °C; for `O=S(=O)(c1cncc(C#Cc2cnn3c(C(F)(F)F)cc(-c4ccc(C(F)(F)F)cc4)nc23)c1)N(CCO)CCO` [Example 13, 5-[7-Trifluoromethyl-5-(4-trifluoromethyl-phenyl)-pyrazolo[1,5-a]pyrimidin-3-ylethynyl]-pyridine-3-sulfonic acid bis-(2-hydroxy-ethyl)-amide]: 173 to 178 °C.

For `Nc1ccc(C#Cc2cnn3c(C(F)(F)F)cc(-c4ccc(Cl)cc4)nc23)nn1` [Example 247, 6-[5-(4-Chloro-phenyl)-7-trifluoromethyl-pyrazolo[1,5-a]pyrimidin-3-ylethynyl]-pyridazin-3-ylamine], the melting point was 247 to 248 °C.

`Nc1ncc(C#Cc2cnn3c(C(F)(F)F)cc(-c4ccc(C(F)(F)F)cc4)nc23)cn1` [Example 205, 5-[7-Trifluoromethyl-5-(4-trifluoromethyl-phenyl)-pyrazolo[1,5-a]pyrimidin-3-ylethynyl]-pyrimidin-2-ylamine] registered a melting point of 255 to 256 °C. The same measure for `NS(=O)(=O)c1cc(C#Cc2ncn3c(C(F)F)cc(-c4ccc(C(F)(F)F)cc4)nc23)c(F)cc1F` [Example 274, 5-[4-Difluoromethyl-2-(4-trifluoromethyl-phenyl)-imidazo[1,5-a]pyrimidin-8-ylethynyl]-2,4-difluoro-benzenesulfonamide]: 149 °C; for `O=S(=O)(Nc1cccnc1)c1ccc(C#Cc2cnn3c(C(F)F)cc(-c4ccc(C(F)(F)F)cc4)nc23)s1` [Example 281, 5-[7-Difluoromethyl-5-(4-trifluoromethyl-phenyl)-pyrazolo[1,5-a]pyrimidin-3-ylethynyl]-thiophene-2-sulfonic acid pyridin-3-ylamide]: 226 °C; for `Cc1cc(-c2ccc(C(F)(F)F)cc2)nc2c(C#Cc3ccc(S(N)(=O)=O)s3)cnn12` [Example 152, 5-[7-Methyl-5-(4-trifluoromethyl-phenyl)-pyrazolo[1,5-a]pyrimidin-3-ylethynyl]-thiophene-2-sulfonic acid amide]: 214 to 215 °C.

In turn, `NS(=O)(=O)c1ccc(C#Cc2cnn3ccc(-c4ccc(C(F)(F)F)cc4)nc23)s1` [Example 311, 5-[5-(4-Trifluoromethyl-phenyl)-pyrazolo[1,5-a]pyrimidin-3-ylethynyl]-thiophene-2-sulfonic acid amide] yielded a melting point of 224 to 226 °C. For `CC(C)(CO)NS(=O)(=O)c1cnc(C#Cc2cnn3c(C4CC4)cc(-c4ccc(C(F)(F)F)cc4)nc23)s1` [Example 82, 2-[7-Cyclopropyl-5-(4-trifluoromethyl-phenyl)-pyrazolo[1,5-a]pyrimidin-3-ylethynyl]-thiazole-5-sulfonic acid (2-hydroxy-1,1-dimethyl-ethyl)-amide] the value was 243 to 245 °C; for `CN1CCN(S(=O)(=O)c2ccc(C#Cc3cnn4c(C(F)(F)F)cc(-c5cccc(C(F)(F)F)c5)nc34)s2)CC1` [Example 249, 3-[5-(4-Methyl-piperazine-1-sulfonyl)-thiophen-2-ylethynyl]-7-trifluoromethyl-5-(3-trifluoromethyl-phenyl)-pyrazolo[1,5-a]pyrimidine], 191 °C; for `COc1ccc(C#Cc2cnn3c(C(F)(F)F)cc(-c4ccc(C(F)(F)F)cc4)nc23)cn1` [Example 56, 3-(6-Methoxy-pyridin-3-ylethynyl)-7-trifluoromethyl-5-(4-trifluoromethyl-phenyl)-pyrazolo[1,5-a]pyrimidine], 166 to 168 °C.

Compound `CC(C)(CO)NS(=O)(=O)c1ccc(C#Cc2cnn3c(C(F)F)cc(-c4ccc(C(F)(F)F)cc4)nc23)s1` [Example 169, 5-[7-Difluoromethyl-5-(4-trifluoromethyl-phenyl)-pyrazolo[1,5-a]pyrimidin-3-ylethynyl]-thiophene-2-sulfonic acid (2-hydroxy-1,1-dimethyl-ethyl)-amide] had a melting point of 157 °C. The same measure for `NS(=O)(=O)c1ccc(C#Cc2cnn3c(C(F)F)cc(-c4cccc(C(F)(F)F)c4)nc23)s1` [Example 160, 5-[7-Difluoromethyl-5-(3-trifluoromethyl-phenyl)-pyrazolo[1,5-a]pyrimidin-3-ylethynyl]-thiophene-2-sulfonic acid amide]: 225 °C; for `Cc1cc(-c2ccc(C(F)(F)F)cc2)nc2c(C#Cc3cnc(N)nc3)cnn12` [Example 315, 5-[7-Methyl-5-(4-trifluoromethyl-phenyl)-pyrazolo[1,5-a]pyrimidin-3-ylethynyl]-pyrimidin-2-ylamine]: 246 to 248 °C; for `OCc1cccc(C#Cc2cnn3c(C(F)(F)F)cc(-c4ccc(C(F)(F)F)cc4)nc23)c1` [Example 204, {3-[7-Trifluoromethyl-5-(4-trifluoromethyl-phenyl)-pyrazolo[1,5-a]pyrimidin-3-ylethynyl]-phenyl}-methanol]: 177 °C. The same measure for `Nc1ccc(C#Cc2cnn3ccc(-c4ccc(C(F)(F)F)cc4)nc23)cn1` [Example 310, 5-[5-(4-Trifluoromethyl-phenyl)-pyrazolo[1,5-a]pyrimidin-3-ylethynyl]-pyridin-2-ylamine]: 213 to 214 °C; for `FC(F)(F)c1ccc(-c2cc(C(F)(F)F)n3ncc(C#Cc4cnc(Cl)nc4)c3n2)cc1` [Example 182, 3-(2-Chloro-pyrimidin-5-ylethynyl)-7-trifluoromethyl-5-(4-trifluoromethyl-phenyl)-pyrazolo[1,5-a]pyrimidine]: 157 to 159 °C. The same measure for `NS(=O)(=O)c1ccc(C#Cc2ncn3c(C(F)F)cc(-c4ccc(C(F)(F)F)cc4)nc23)s1` [Example 275, 5-[4-Difluoromethyl-2-(4-trifluoromethyl-phenyl)-imidazo[1,5-a]pyrimidin-8-ylethynyl]-thiophene-2-sulfonic acid amide]: 223 °C; for `CC(C)(C)NS(=O)(=O)c1ccc(C#Cc2cnn3c(C(F)F)cc(-c4cccc(C(F)(F)F)c4)nc23)s1` [Example 161, 5-[7-Difluoromethyl-5-(3-trifluoromethyl-phenyl)-pyrazolo[1,5-a]pyrimidin-3-ylethynyl]-thiophene-2-sulfonic acid tert-butylamide]: 201 °C. The compound `CC(C)(CO)NS(=O)(=O)c1cncc(C#Cc2cnn3c(C(F)(F)F)cc(-c4ccc(C(F)(F)F)cc4)nc23)c1` [Example 11, 5-[7-Trifluoromethyl-5-(4-trifluoromethyl-phenyl)-pyrazolo[1,5-a]pyrimidin-3-ylethynyl]-pyridine-3-sulfonic acid (2-hydroxy-1,1-dimethyl-ethyl)-amide] gave a melting point of 226 to 227 °C. `CC(C)(C)NS(=O)(=O)c1ccc(C#Cc2cnn3c(C(F)(F)F)cc(-c4ccc(C(F)(F)F)cc4)nc23)s1` [Example 109, 5-[7-Trifluoromethyl-5-(4-trifluoromethyl-phenyl)-pyrazolo[1,5-a]pyrimidin-3-ylethynyl]-thiophene-2-sulfonic acid tert-butylamide] registered a melting point of 226 °C. The same measure for `Nc1ccc(C#Cc2cnc3c(C(F)(F)F)cc(-c4ccc(C(F)(F)F)cc4)cn23)cn1` [Example 191, 5-[8-Trifluoromethyl-6-(4-trifluoromethyl-phenyl)-imidazo[1,2-a]pyridin-3-ylethynyl]-pyridin-2-ylamine]: 260 to 262 °C; for `FC(F)(F)c1ccc(-c2cc(C(F)(F)F)n3ncc(C#Cc4ccccc4)c3n2)cc1` [Example 62, 3-Phenylethynyl-7-trifluoromethyl-5-(4-trifluoromethyl-phenyl)-pyrazolo[1,5-a]pyrimidine]: 144 to 145 °C. The same measure for `NS(=O)(=O)c1cnc(C#Cc2cnn3c(C(F)(F)F)cc(-c4ccc(C(F)(F)F)cc4)nc23)s1` [Example 29, 2-[7-Trifluoromethyl-5-(4-trifluoromethyl-phenyl)-pyrazolo[1,5-a]pyrimidin-3-ylethynyl]-thiazole-5-sulfonic acid amide]: 235 °C; for `OCCNc1ccc(C#Cc2cnn3c(C(F)(F)F)cc(-c4ccc(C(F)(F)F)cc4)nc23)cn1` [Example 200, 2-{5-[7-Trifluoromethyl-5-(4-trifluoromethyl-phenyl)-pyrazolo[1,5-a]pyrimidin-3-ylethynyl]-pyridin-2-ylamino}-ethanol]: 202 to 203 °C; for `Cc1cc(-c2cc(C(F)F)n3ncc(C#Cc4ccc(S(N)(=O)=O)s4)c3n2)ccc1Cl` [Example 172, 5-[5-(4-Chloro-3-methyl-phenyl)-7-difluoromethyl-pyrazolo[1,5-a]pyrimidin-3-ylethynyl]-thiophene-2-sulfonic acid amide]: 216 °C. For `FC(F)(F)c1cccc(-c2cc(C(F)(F)F)n3ncc(C#Cc4cccnc4)c3n2)c1` [Example 103, 3-Pyridin-3-ylethynyl-7-trifluoromethyl-5-(3-trifluoromethyl-phenyl)-pyrazolo[1,5-a]pyrimidine] the value was 173 °C; for `CC(C)(C)NS(=O)(=O)c1ccc(C#Cc2cnn3c(C(F)(F)F)cc(-c4cccc(C(F)(F)F)c4)nc23)s1` [Example 117, 5-[7-Trifluoromethyl-5-(3-trifluoromethyl-phenyl)-pyrazolo[1,5-a]pyrimidin-3-ylethynyl]-thiophene-2-sulfonic acid tert-butylamide], 168 °C; for `O=S(=O)(c1ccc(C#Cc2cnn3c(C(F)F)cc(-c4cccc(C(F)(F)F)c4)nc23)s1)N(CCO)CCO` [Example 264, 5-[7-Difluoromethyl-5-(3-trifluoromethyl-phenyl)-pyrazolo[1,5-a]pyrimidin-3-ylethynyl]-thiophene-2-sulfonic acid bis-(2-hydroxy-ethyl)-amide], 174 °C.

The record behind these values is patent US8063048B2, “Acetylenyl-pyrazolo-pyrimidine derivatives” (Hoffmann-La Roche Inc., priority 2005, dated 2011).
